How the values were obtained:
VEGFR2, unphosphorylated = VEGFR2, unphosphorylated (Homo sapiens (Human), UniProt P35968); test: VEGFR ADP GLO Assay; assay type: biochemical
Procedure: (§1) II. Methods and Procedures
Assay buffer stock contains 50 mM HEPES pH7.5, 10 mM MgCl2, 0.01% Brij-35, and 1 mM EGTA.
Unphosphorylated VEGFR2. […] Store at −80° C. in aliquots.
Sonicate 10 mg/ml Srctide solution for 10 minutes and then vacuum filter.
Freshly Prepared Solutions
2× kinase solution. Make a working solution of 10 nM unphosphorylated VEGFR2 in Assay buffer. Vacuum filter 2× kinase solution prior to running assay. Keep on ice until use.
2× substrate/ATP solution. Make a working solution of 2 mg/mL srctide and 2.4 mM ATP in Assay buffer. Keep on ice until use.
Step 1. Dispensing inhibitors/controls: Using Echo, dispense 10 nL/well compound serial dilutions in DMSO to columns 1-22 (in 384-well plates) or columns 1-44 (in 1536-well plates). Dilution series=11 pt, 3-fold dilutions. The top compound concentration in the source plate is 4 mM. The top compound concentration in the assay plate is 10 uM. Using Echo, dispense 10 nl/well DMSO to column 23 (in 384-well plates) or columns 45-47 (in 1536-well plates). […] These wells will serve as positive control wells.
Step 2. Pre-incubation of inhibitors with kinase: Add 2 μL/well 2× kinase solution. Centrifuge at 1000 rpm for 1 min. Incubate at room temperature for 30 min.
Step 3. Kinase cascade reaction: Add 2 μL/well 2× substrate/ATP solution to initiate kinase reactions. Centrifuge at 1000 rpm for 1 min. Incubate at room temperature for 180 min.
Final concentrations of components in the assay:
Step 4. Quench: Add 2 uL/well ADP Glo Reagent+0.05% CHAPS. Centrifuge at 1000 rpm for 1 min; Incubate at room temperature for one hour.
Step 5. Detection: Add 2 uL/well Kinase Detection Reagent+0.05% CHAPS. Centrifuge at 1000 rpm for 1 min; Incubate at room temperature for 1 hour; Read Luminescence on a plate reader.
(§2) III. Calculations and Formulas
IC50 values are determined from a 4-parameter fit, using the following equation: Y=Bottom+(Top−Bottom)/(1+10^(Log IC50-X)*Hill slope) where X=log10 of the compound concentration; top can be defined by PC; bottom defined by NC.

[1] = target: His6-TEV-PDGFRβ (557-1016) (Homo sapiens (Human), UniProt P09619); test: PDGFRβ HTRF Assay; assay type: biochemical; conditions: read-out: PDGFR HTRF IC50
Chain of His6-TEV-PDGFRβ (557-1016) (P09619 557-1016): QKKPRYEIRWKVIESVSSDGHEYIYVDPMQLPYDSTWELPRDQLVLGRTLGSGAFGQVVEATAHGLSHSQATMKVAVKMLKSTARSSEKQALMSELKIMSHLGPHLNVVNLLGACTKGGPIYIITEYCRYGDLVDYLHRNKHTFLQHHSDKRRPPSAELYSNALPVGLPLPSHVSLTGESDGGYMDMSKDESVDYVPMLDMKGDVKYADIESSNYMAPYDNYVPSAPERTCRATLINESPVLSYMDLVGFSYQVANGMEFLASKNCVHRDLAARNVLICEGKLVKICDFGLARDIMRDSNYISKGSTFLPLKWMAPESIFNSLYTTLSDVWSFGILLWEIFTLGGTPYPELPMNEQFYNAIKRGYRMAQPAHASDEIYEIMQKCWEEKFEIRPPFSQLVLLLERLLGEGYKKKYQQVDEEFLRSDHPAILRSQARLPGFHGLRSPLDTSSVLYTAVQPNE
Procedure: Instrumentation: a. Compound liquid handling: LabCyte Echo; b. Reagent liquid handling: Thermo Scientific Multidrop Combi; c. BMG PHERAStar multilabel plate reader.
Protein Reagent: His6-TEV-PDGFRβ Protein Prep prepared at Accelagen.
as §1
Assay buffer stock solution, contains 50 mM Hepes, 10 mM MgCl2, 1 mM EGTA, and 0.01% Brij-35, 0.01% ovalbumin, 2 mM DTT at pH 7.5, in molecular biology grade water. Store at room temperature.
DTT, 2 M in molecular biology grade water, store at −20° C. in aliquots.
Ovalbumin, 10% or 100 mg/mL, prepare fresh on experimental day.
PDGFRβ, 116 μM (PDGFRb_08 Prep 02), produced at Accelagen. Store at −80° C. in aliquots.
TK-biotin peptide, […] in molecular biology grade water, store at −20° C. in aliquots.
ATP, 100 mM in molecular biology grade water, store at −20° C. in aliquots.
HTRF KinEASE-TK kit: Allow the contents of the Cisbio kit to warm up to room temperature before use. This kit contains HTRF detection buffer, TK-Antibody labeled with Eu^3+-cryptate, TK-substrate biotin and Streptavidin-XL665.
TK Substrate-Biotin, reconstitute 500 μg lyopholized with 574 μL molecular biology grade water to prepare a 500 μM stock; After use, aliquot the rest and store at −20° C.
TK Antibody-Cryptate, reconstitute lyophilized with 1 mL of molecular biology grade water (100× solution) then add 99 mL detection buffer to prepare a ready to use TK-antibody-cryptate solution; the concentration of the TK-antibody-cryptate reagent is not known. After use, aliquot the rest and store at −20° C.
Streptavidin-XL665, reconstitute 3 mg lyophilized with 3 mL molecular biology grade water to prepare a 1 mg/mL or 16.67 μM stock; MW=60 kDa; After use, aliquot the rest and store at −20° C.
(§3) Freshly Prepared Solutions:
Assay buffer. Dilute 5× Kinase buffer 5-fold with molecular biology grade water and add DTT to 2 mM and ovalbumin to 0.1 mg/mL (or 0.01%).
2× protein solution. Make a working solution of […] PDGFRβ in assay buffer. Keep on ice until use to maintain enzyme stability.
2× substrate solution. Make a working solution of 1.6 mM ATP and 1 μM TK-substrate biotin peptide in assay buffer.
3× quench/detection solution. Make a working solution of 0.1875 μM SA-XL665 and the TK-antibody cryptate diluted by 12 of total quench/detection volume in assay buffer.
Keep final streptavidin/biotin ratio at 1 to 8.
Example of 3× quench/detection solution preparation: 8 mL total volume.
TK antibody-cryptate in detection buffer—4000 μL
The kinase reaction is stopped by the addition of the detection reagents which contain EDTA (detection step).
Assay in white ProxiPlate 384-well
Step 1. Dispensing inhibitors/DMSO and low control: Using the ECHO 555 acoustic dispenser, spot desired compound serial dilutions in DMSO, NEAT DMSO to represent the uninhibited enzyme control, and 10 μM final [imatinib] to the represent the 100% inhibited enzyme control
Step 2. PDGFRβ E+I pre-incubation: Add 2 μL 2× protein solution to columns 1-24 using the Multidrop Combi. Centrifuge at 1000 rpm for 1 min. Incubate 30 min at RT
Step 2. Enzymatic reaction: Add 2 μL substrate solution to columns 1-24 to initiate the reaction using the Multidrop Combi; cover/seal the assay plate to reduce evaporation. Centrifuge at 1000 rpm for 1 min. Incubate at room temperature for 3 hours.
Step 3. Quench/Detection: Add 2 μl 3× quench/detection solution to columns 1-24 using the Multidrop Combi; cover/seal the plate. Centrifuge 1 min 1000 rpm. Incubate at RT for 60 min. Read the plate in PHERAstar (or similar instrument) on HTRF setting at excitation 337 nm—dual emission—665/620 nm ratio.
as §2
HTRF ratio values calculated by the instrument (Ratio is acceptor counts/donor counts*10,000) is exported from the plate reader and used in data analysis. […] Assay statistics can include Robust Z′ and Signal to Background.
% Inhibition Calculation: Percent inhibition will be calculated for sample wells based on the equation: […]

PDGFRβ = PDGFRβ (Rattus norvegicus (Rat), UniProt Q05030); test: PDGFRβ Cellular Assay (PDGFRb P-Y751 HTRF in A10 cells stimulated with PDGF-BB); assay type: cell-based; conditions: PDGFR Cellular IC50
Chain of PDGFRβ (Q05030 32-1097): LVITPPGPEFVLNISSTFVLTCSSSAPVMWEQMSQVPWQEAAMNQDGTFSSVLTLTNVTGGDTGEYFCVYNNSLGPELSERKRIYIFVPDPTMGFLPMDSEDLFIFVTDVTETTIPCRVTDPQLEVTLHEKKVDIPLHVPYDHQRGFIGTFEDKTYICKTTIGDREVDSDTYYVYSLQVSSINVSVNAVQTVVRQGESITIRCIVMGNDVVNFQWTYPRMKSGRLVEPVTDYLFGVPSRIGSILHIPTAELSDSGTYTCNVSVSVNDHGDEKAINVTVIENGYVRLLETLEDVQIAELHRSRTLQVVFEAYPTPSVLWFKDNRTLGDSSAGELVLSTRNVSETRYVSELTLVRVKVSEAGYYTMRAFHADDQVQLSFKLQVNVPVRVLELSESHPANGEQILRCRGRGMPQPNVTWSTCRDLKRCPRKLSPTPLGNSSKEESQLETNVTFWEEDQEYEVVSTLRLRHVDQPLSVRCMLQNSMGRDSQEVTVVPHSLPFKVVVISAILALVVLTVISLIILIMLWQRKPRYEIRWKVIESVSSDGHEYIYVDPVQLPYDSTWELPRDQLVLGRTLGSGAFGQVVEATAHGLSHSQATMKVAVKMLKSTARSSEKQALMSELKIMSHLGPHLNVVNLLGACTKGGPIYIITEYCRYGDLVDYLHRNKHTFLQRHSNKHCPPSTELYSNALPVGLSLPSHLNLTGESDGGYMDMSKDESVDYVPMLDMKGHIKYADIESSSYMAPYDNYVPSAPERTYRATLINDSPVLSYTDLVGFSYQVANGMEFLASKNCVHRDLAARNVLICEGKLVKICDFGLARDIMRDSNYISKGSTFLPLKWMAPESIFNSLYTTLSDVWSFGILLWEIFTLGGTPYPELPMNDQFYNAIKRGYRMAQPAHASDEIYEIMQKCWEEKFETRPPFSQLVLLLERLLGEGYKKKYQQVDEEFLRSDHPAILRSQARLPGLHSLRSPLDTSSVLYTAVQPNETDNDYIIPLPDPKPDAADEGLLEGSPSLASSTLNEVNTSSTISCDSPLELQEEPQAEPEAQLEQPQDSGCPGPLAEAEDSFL
Procedure: as §1
Cell Culture and Preparation: Cells are cultured according to ATCC procedure (5) with the addition of the antibiotic penicillin-streptomycin. If working from frozen, cells should be thawed according to ATCC procedure. Depending on the cell density of frozen vial, cells will need time to recover from thaw. An 80% confluent T75 flask should be enough for one 384 well plate.
Stock Solutions: Rat PDGFBB. A 100 ug/mL stock is prepared by reconstituting 50 ug in 500 uL of 4 mM HCl and 0.1% BSA. It can be stored for a month at 4° C., or aliquoted out and frozen in the −20/−80° C. to avoid multiple free-thaw cycles.
as §3
1× Cisbio cell lysis buffer. The cell lysis buffer is diluted 4-fold with molecular grade water. The blocking agent is then diluted 25-fold in the diluted lysis buffer.
Antibody solutions. Equal amounts d2 and cryptate antibody are diluted 20-fold in detection buffer.
Rat PDGFBB. A working stock of 100 ng/mL is created from the stock solution in 10% FBS culture media.
Step 1: Plating Cells: Media from the A10 cell flask is aspirated. The cells are rinsed with PBS and then trypsinized to disperse the cell layer. The cells are then pelleted are resuspended to 1.25e5 cells/mL. […] Plates are covered and placed in the incubator (37° C. 5% CO2) overnight to allow cells to adhere.
Step 2: Compound Dispense: Approximately 18 hours after plating, dispense 40 nL compound onto cells using Echo. Column 12 is the neutral control DMSO, column 24 is the inhibitor control 10 mM Imatinib (10 uM final assay concentration). The plate is returned to the incubator for 3 hours.
After 10 minutes the media is removed by flicking the plate.
Step 4: Cell lysis and antibody addition: 20 uL lysis buffer per well is added to the plate via Tempest. 5 uL antibody solution is added per well via the Tempest. The plate is placed on the shaker at 230 rpm for 1 hour at room temperature.
Step 5: Detection: The plate is read using the HTRF module on the BMG Pherastar. Data is analyzed using Genedata Screener.
as §2
% Inhibition: % Inhibition=(NC−sample)/(NC−PC)*100 where NC is the mean of negative control (reactions without inhibitor), and PC is the mean of positive control (10 μM imatinib).
IC50 values are determined from a 4-parameter fit, using the following equation: Y=Bottom+(Top−Bottom)/(1+10((Log IC50−X)*Hill slope)), where X=log10 of the compound concentration; top can be defined by PC; bottom defined by NC.

Chain of VEGFR2, unphosphorylated (P35968 20-1356): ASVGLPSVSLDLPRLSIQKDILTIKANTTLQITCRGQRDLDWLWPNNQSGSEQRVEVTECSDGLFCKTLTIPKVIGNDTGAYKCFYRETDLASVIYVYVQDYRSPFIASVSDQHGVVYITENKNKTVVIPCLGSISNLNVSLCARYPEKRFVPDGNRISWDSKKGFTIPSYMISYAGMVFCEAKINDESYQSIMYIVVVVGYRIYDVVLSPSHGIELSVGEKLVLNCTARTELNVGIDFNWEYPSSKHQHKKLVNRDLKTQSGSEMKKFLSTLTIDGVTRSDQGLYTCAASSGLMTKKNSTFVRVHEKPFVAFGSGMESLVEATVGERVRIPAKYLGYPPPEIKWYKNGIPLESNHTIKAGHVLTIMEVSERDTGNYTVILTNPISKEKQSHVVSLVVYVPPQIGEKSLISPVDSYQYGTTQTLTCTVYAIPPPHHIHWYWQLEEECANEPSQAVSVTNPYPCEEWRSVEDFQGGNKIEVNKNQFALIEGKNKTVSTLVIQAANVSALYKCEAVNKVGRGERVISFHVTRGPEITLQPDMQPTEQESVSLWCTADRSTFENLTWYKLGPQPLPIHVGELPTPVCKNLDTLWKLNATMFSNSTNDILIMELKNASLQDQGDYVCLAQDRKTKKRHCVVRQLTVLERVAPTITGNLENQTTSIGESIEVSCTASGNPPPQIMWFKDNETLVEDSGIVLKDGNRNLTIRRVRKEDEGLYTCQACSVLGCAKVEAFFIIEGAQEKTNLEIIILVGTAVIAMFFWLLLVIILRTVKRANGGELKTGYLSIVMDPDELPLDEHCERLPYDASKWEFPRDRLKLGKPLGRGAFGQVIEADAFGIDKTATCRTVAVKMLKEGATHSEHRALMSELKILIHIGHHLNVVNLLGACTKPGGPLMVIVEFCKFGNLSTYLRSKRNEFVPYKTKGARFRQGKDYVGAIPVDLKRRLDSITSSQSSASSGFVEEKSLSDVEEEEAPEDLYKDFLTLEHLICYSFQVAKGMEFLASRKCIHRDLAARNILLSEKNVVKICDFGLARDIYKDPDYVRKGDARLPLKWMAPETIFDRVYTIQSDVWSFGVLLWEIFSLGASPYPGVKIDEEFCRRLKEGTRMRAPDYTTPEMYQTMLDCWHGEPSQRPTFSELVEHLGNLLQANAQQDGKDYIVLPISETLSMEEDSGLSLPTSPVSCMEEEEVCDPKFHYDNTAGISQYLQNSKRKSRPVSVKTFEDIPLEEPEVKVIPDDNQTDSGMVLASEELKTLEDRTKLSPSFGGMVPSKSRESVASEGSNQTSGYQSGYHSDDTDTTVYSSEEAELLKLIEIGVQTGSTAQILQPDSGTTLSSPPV

Compound	IC50 (VEGFR2, unphosphorylated) [nM]	IC50 [1] [nM]	IC50 (PDGFRβ) [nM]
Cc1ncc(NC(=O)CN2C[C@H](C)O[C@@H](C)C2)cc1NC(=O)c1cnn2cc(-c3ccc[nH]c3=O)sc12 (relative stereo) [Example 370, N-(5-(2-(trans-2,6-dimethylmorpholino)acetamido)-2-methylpyridin-3-yl)-2-(2-oxo-1,2-dihydropyridin-3-yl)pyrazolo[5,1-b]thiazole-7-carboxamide]	> 7500	1	544
Cc1ncc(C(=O)NCCN2CC3CCC2CC3)cc1NC(=O)c1cnn2cc(-c3cnn(C)c3)sc12 [Example 1, N-(5-((2-(2-azabicyclo[2.2.2]octan-2-yl)ethyl)carb-amoyl)-2-methylpyridin-3-yl)-2-(1-methyl-1H-pyrazol-4-yl)pyrazolo[5,1-b]thiazole-7-carboxamide]	> 7500	0.2	33.8
Cc1cc(C(=O)NCCN2CCCC23CCCC3)sc1NC(=O)c1cnn2cc(-c3cnn(C)c3)sc12 [Example 196, N-(5-((2-(1-azaspiro[4.4]nonan-1-yl)ethyl)carbamoyl)-3-methylthiophen-2-yl)-2-(1-methyl-1H-pyrazol-4-yl)pyrazolo[5,1-b]thiazole-7-carboxamide]	> 7500	1.4	85.8
Cc1ncc(NC(=O)CN2CC(C)(C)C2)cc1NC(=O)c1cnn2cc(-c3c(C)noc3C)sc12 [Example 364, N-(5-(2-(3,3-dimethylazetidin-1-yl)acetamido)-2-methylpyridin-3-yl)-2-(3,5-dimethylisoxazol-4-yl)pyrazolo[5,1-b]thiazole-7-carboxamide]	> 7500	0.8	10.3

From patent US20240109917A1 (ACTELION PHARMACEUTICALS LTD, priority 2020, published 2024)
